# From publication PMC5438973 (Frontiers in Psychiatry, 2017)
# Where two headings read alike, the source gives them in different places.
# Assays:
# Male, Wistar rats [1] = assay: Schedule-induced polydipsia; assay type: in vivo, rat; conditions: for Effect on excessive drinking / amount of water consumed / Effect on number of responses emitted (lever pressing for food): acute dosing; for Effect of antagonist on the decrease in excessive water consumption produced by CPD 1: CPD 1 5.6 mg/kg
# Excerpt: Rats were used in these experiments as they have been utilized for such studies in the past with great success in generating significant polydipsia ([16]). Male, Wistar rats were singly housed, and maintained at approximately 85% of their free-feeding weights with free access to water. Twelve adult male, Wistar rats (Harlan Industries, Indianapolis, IN, USA) were used. They were allowed to acclimate to our vivarium for at least 3 days prior to testing. They were 2 months old at the start of the experiments that lasted approximately 6–8 months and were without explicit experimental experience prior to this study. The rats were singly housed, and maintained at approximately 86–91% of their free-feeding weights with post session supplemental feeding of Lab Diet #5001 for rodents (PMI Nutrition International Inc., St. Louis, MO, USA). Body weights were corrected for the normal growth curve of Wistar rats such that actual body weight of each rat increased over the experimental time frame. Water was available continuously in the individual home cages. Rats were inspected daily 7 days/week by experimenters and veterinary staff.
# The experiments were conducted using operant behavior test chambers ENV-007 (Med Associates Inc., Georgia, VT, USA), 30.5 cm × 24.1 cm × 29.2 cm. The test chambers were contained within light and sound attenuating shells. A food trough was mounted 2 cm off the grid floor on the centerline. Two response levers were centered 8 cm off the centerline and 7 cm off the grid floor. Three lights were located above each response lever at 15 cm off the grid floor. All events were controlled and lever-press data were recorded by a Compaq computer running MED-PC Version IV (Med Associates Inc., Georgia, VT, USA). The water bottle located within each chamber was weighed before and after experimental sessions.
# Experimental sessions lasted 90 min. Test compounds or drug vehicle were administered on Tuesdays and Fridays, given the stability of performance (within 15% variation of the individual animal). Non-injection, control performances were on Thursdays. […] Dose-effect curves and drug interaction data were created by repeated testing in groups of five to eight rats. Test compounds were administered as described in figure legends. The effects of the compound are expressed as a percent of control for each individual animal. Results were analyzed by ANOVA followed by Dunnett’s multiple comparison (p < 0.05).
# Thus, in keeping with the guidelines of animal care and use followed here, we utilized the minimum number of animals required for signal detection.
# Male, NIH Swiss mice [2] = assay: Rotarod performance; assay type: in vivo, mouse
# Excerpt: Mice were not pretrained on this task.
# Male, NIH Swiss mice [3] = conditions: 12/dose group
# Male, NIH Swiss mice [4] = conditions: mouse, in vivo, 60 min
# Male, NIH Swiss mice [5] = assay: Nestlet-shredding; conditions: 8/dose group
# Male, Wistar rats [6] = assay: Isoproterenol-induced drinking; assay type: in vivo, rat; conditions: (±)-isoproterenol 30 μg/kg, s.c.
# Method: Male, Wistar rats (different from those rats used in the schedule-induced polydipsia studies) were used. They were 331 ± 11 g at the initiation of this study. Compound 1 (5.6 mg/kg, s.c.) was evaluated for its ability to reduce drinking. (±)-isoproterenol (30 μg/kg, s.c.) was given to induce drinking (n = 5–20 rat/group). Ten minutes after vehicle or (±)-isoproterenol injection, rats were given either vehicle or Compound 1 and a 60 min session began in which the rats in individual housing cages were given access to water 20 min after the second injection. The weight of the water bottle before and after the 60 min period was measured to the nearest 0.1 g. After the experiment, the animals were returned to their living cages with continuous access to food and water.
# h5-HT2A = biological target: T1, h5-HT2A (Homo sapiens, UniProt P28223); assay: GTP-γ-[35S] functional assay (SPA), AV12 cells; assay type: biochemical; conditions: GTPgs functional assay, human recombinant cell line
# T1 construct: expressed in transfected cells; host or cells: AV12 cells
# Excerpt: (§1) 5-HT2 receptors are functionally coupled to specific G-proteins. Agonist activation of 5-HT2 G-protein coupled receptors results in the release of GDP from alpha-subunit (G alpha q or G alpha i) of the G-protein and the subsequent binding of GTP. The binding of the stable analog GTP-g-[^35S] is an indicator of receptor activation. Human cloned 5-HT2A, −2B, and −2C receptors were expressed in AV12 cells. GTP-g-[^35S] nucleotide exchange scintillation proximity assay (SPA) was used to measure binding as previously described ([14]).
# h5-HT2B = biological target: T2, h5-HT2B (Homo sapiens, UniProt P41595); assay: GTP-γ-[35S] functional assay (SPA), AV12 cells; assay type: biochemical; conditions: GTPgs functional assay, human recombinant cell line
# T2 construct: expressed in transfected cells; host or cells: AV12 cells
# Excerpt: as §1
# h5-HT2C = biological target: T3, h5-HT2C (Homo sapiens, UniProt P28335); assay: GTP-γ-[35S] functional assay (SPA), AV12 cells; assay type: biochemical; conditions: GTPgs functional assay, human recombinant cell line
# T3 construct: expressed in transfected cells; host or cells: AV12 cells
# Excerpt: as §1
# Male, NIH Swiss mice [7] = assay: Locomotor activity; conditions: 12/dose group
# [8] = fluoxetine 30 mg/kg with SB-242084 3 mg/kg
# T2 sequence (P41595 whole entry): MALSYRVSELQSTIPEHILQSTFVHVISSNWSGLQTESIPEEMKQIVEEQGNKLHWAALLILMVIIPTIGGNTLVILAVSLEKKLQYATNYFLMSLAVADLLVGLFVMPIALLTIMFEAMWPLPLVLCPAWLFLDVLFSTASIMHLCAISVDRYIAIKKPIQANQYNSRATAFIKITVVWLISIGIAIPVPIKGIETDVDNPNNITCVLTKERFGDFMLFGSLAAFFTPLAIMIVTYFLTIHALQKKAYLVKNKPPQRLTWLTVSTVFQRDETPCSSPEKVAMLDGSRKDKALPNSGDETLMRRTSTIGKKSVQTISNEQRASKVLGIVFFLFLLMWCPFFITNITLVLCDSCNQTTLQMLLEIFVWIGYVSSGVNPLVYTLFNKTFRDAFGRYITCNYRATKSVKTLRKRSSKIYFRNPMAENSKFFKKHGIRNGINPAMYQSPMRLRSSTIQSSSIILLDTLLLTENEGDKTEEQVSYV
# T1 sequence (P28223 whole entry): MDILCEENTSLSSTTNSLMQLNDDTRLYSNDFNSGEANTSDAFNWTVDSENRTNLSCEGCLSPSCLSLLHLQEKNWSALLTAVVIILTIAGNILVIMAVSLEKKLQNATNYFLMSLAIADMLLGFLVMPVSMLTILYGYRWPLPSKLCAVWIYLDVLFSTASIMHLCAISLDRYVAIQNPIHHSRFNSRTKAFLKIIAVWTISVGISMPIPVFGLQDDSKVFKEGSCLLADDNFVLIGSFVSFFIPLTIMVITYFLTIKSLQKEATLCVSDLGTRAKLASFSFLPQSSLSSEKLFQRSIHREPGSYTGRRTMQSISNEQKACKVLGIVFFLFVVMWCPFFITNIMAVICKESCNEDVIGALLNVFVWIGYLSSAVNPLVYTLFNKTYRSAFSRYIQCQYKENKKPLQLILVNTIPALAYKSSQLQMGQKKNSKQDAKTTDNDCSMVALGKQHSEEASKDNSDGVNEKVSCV
# T3 sequence (P28335 33-458): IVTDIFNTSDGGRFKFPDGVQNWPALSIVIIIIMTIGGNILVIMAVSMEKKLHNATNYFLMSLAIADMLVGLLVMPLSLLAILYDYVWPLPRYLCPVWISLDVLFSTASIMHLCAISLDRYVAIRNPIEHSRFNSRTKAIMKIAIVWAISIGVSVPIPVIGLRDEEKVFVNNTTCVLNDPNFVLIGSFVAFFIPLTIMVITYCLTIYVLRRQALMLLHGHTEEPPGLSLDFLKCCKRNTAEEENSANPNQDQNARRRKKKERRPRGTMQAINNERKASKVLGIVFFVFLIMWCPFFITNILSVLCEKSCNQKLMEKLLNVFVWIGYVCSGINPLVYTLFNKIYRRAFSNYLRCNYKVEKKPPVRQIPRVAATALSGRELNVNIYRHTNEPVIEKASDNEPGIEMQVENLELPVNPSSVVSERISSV
smiles,measurement,setting,value
"CN(C)CCCN1c2ccccc2CCc2ccc(Cl)cc21 [Clomipramine, clomipramine]",Effect on excessive drinking / amount of water consumed,"Male, Wistar rats [1]; given alone",decreased
same,Effect on number of responses emitted (lever pressing for food),"Male, Wistar rats [1]; given alone",decreased
C[C@H](N)Cc1ccccc1 [D-amphetamine],Effect on excessive drinking / amount of water consumed,"Male, Wistar rats [1]; given alone",decreased
same,Effect on number of responses emitted (lever pressing for food),"Male, Wistar rats [1]; given alone",increased
"CNCCC(Oc1ccc(C(F)(F)F)cc1)c1ccccc1 (stereo not shown) [Fluoxetine, fluoxetine]",Responses (Rsp) in percent of controls,"Male, Wistar rats [1]; 10 mg/kg given alone",102.3% of controls
same,Water consumed (H2O) in percent of controls,"Male, Wistar rats [1]; 10 mg/kg given alone",66.7% of controls
same,Responses (Rsp) in percent of controls,"Male, Wistar rats [1]; 30 mg/kg, i.p., given alone",6% of controls
same,Water consumed (H2O) in percent of controls,"Male, Wistar rats [1]; 30 mg/kg, i.p., given alone",8% of controls
same,Dose at which statistically significant reduction of excessive drinking was detected,"Male, Wistar rats [1]; Dunnett p < 0.05",20 mg/kg
same,Dose at which statistically significant reduction of food-maintained responding was detected,"Male, Wistar rats [1]; Dunnett p < 0.05",20 mg/kg
same,Water consumed (H2O) in percent of controls,"Male, Wistar rats [1]; fluoxetine 10 mg/kg with SB-242084 3 mg/kg",99.2% of controls
same,Responses (Rsp) in percent of controls,"Male, Wistar rats [1]; [8]",92.7% of controls
same,Water consumed (H2O) in percent of controls,"Male, Wistar rats [1]; [8]",101.4% of controls
same,"Rotarod, minimal effective dose","Male, NIH Swiss mice [2]; male, NIH Swiss, mouse, in vivo, 2 min",>30 milligrams per kilogram
same,"Marble-burying, minimal effective dose","Male, NIH Swiss mice [3]",10 milligrams per kilogram
same,"Locomotor activity, minimal effective dose","Male, NIH Swiss mice [4]",>10 milligrams per kilogram
same,"Nestlet-shredding, minimal effective dose","Male, NIH Swiss mice [5]",10 milligrams per kilogram
"CC(C)NCC(O)c1ccc(O)c(O)c1 (stereo not shown) [Isoproterenol, isoproterenol, reference compound]",Increase of water consumption relative to vehicle-treated rats,"Male, Wistar rats [6]",432%
"COc1cccc([C@H](O)C2CCN(CCc3ccc(F)cc3)CC2)c1OC [MDL100907, (R)-(2,3-dimethoxyphenyl)-[1-[2-(4-fluorophenyl)ethyl]-4-piperidyl]methanol]",Effect of antagonist on the decrease in excessive water consumption produced by CPD 1,"Male, Wistar rats [1]",did not significantly alter
"CCCC(C)C1(CC)C(=O)NC(=O)NC1=O (stereo not shown) [Pentobarbital, pentobarbital]","Rotarod, minimal effective dose","Male, NIH Swiss mice [2]; mice, 12/dose group",5.6 milligrams per kilogram
same,"Marble-burying, minimal effective dose","Male, NIH Swiss mice [3]",>17 milligrams per kilogram
same,"Nestlet-shredding, minimal effective dose","Male, NIH Swiss mice [5]",10 milligrams per kilogram
C[C@H](N)Cn1ccc2cc(F)c(Cl)cc21 [Ro 60-0175],EC50,h5-HT2A,130 ± 1 nM
same,Emax,h5-HT2A,59 ± 1%
same,EC50,h5-HT2B,57 ± 1 nM
same,Emax,h5-HT2B,58 ± 1%
same,EC50,h5-HT2C,5.1 ± 1 nM
same,Emax,h5-HT2C,104 ± 1%
same,Effect on excessive drinking / amount of water consumed,"Male, Wistar rats [1]; given alone",significantly decreased
same,Effect on number of responses emitted (lever pressing for food),"Male, Wistar rats [1]; given alone",significantly decreased
same,"Rotarod, minimal effective dose","Male, NIH Swiss mice [2]; mice, 12/dose group",greater than 1 milligrams per kilogram
same,"Rotarod, minimal effective dose","Male, NIH Swiss mice [2]; mice, 12/dose group, listed as RO 60-0175",>10 milligrams per kilogram
same,"Marble-burying, minimal effective dose","Male, NIH Swiss mice [3]",0.1 milligrams per kilogram
same,"Nestlet-shredding, minimal effective dose","Male, NIH Swiss mice [5]",less than 1 milligrams per kilogram
same,"Nestlet-shredding, minimal effective dose","Male, NIH Swiss mice [5]; listed as RO 60-0175",<1 milligrams per kilogram
same,"Locomotor activity, minimal effective dose","Male, NIH Swiss mice [7]",greater than 10 milligrams per kilogram
same,"Locomotor activity, minimal effective dose","Male, NIH Swiss mice [7]; listed as RO 60-0175",>1 milligrams per kilogram
"Cc1cc2c(cc1Cl)N(C(=O)Nc1ccc(Oc3cccnc3C)nc1)CC2 [SB242084, 6-chloro-5-methyl-N-{6-[(2-methylpyridin-3-yl)oxy]pyridin-3-yl}indoline-1-carboxamide]",Responses in percent of control,"Male, Wistar rats [1]; 3 mg/kg given alone",191.2% of controls
same,Water consumed (H2O) in percent of control,"Male, Wistar rats [1]; 3 mg/kg given alone",112.1% of controls
same,Effect of antagonist on the decrease in excessive water consumption produced by CPD 1,"Male, Wistar rats [1]",prevented
same,Effect of antagonist on the effects of D-amphetamine,"Male, Wistar rats [1]; SB242084 3 mg/kg, D-amphetamine 3 mg/kg",did not alter
same,Effect of antagonist on the decreases in water consumption and response output produced by fluoxetine,"Male, Wistar rats [1]; SB-242084 3 mg/kg, fluoxetine 30 mg/kg",significantly attenuated
same,Effect on excessive drinking / amount of water consumed,"Male, Wistar rats [1]; given alone",did not significantly affect
same,Effect on number of responses emitted (lever pressing for food),"Male, Wistar rats [1]; given alone",increased
"Clc1cccc(N2CCNCC2)c1 [mCPP, meta-chlorophenylpiperazine, reference compound]",Emax,h5-HT2A,88 ± 2%
same,Emax,h5-HT2B,84 ± 2%
same,Emax,h5-HT2C,99 ± 2%
same,Effect on excessive drinking / amount of water consumed,"Male, Wistar rats [1]; given alone",significantly decreased
same,Effect on number of responses emitted (lever pressing for food),"Male, Wistar rats [1]; given alone",significantly decreased
